Results from BindingDB's records for doi:10.7270/Q2319T8T (The Scripps Research Institute Molecular Screening Center, 2007).
Where a name gives a salt, the structure may show the parent alone.

Molecular target: Steroidogenic factor 1 (Homo sapiens, UniProt Q13285)
Assay: blockers of SF-1 LBD reporter transcription – cell-based, CHO-K1, Gal4-SF-1 LBD, luciferase luminescence, dose response (AID 600)
[1] = inactive by the depositor's call

Chain of Steroidogenic factor 1 (Q13285 whole entry, the tested form may be a part): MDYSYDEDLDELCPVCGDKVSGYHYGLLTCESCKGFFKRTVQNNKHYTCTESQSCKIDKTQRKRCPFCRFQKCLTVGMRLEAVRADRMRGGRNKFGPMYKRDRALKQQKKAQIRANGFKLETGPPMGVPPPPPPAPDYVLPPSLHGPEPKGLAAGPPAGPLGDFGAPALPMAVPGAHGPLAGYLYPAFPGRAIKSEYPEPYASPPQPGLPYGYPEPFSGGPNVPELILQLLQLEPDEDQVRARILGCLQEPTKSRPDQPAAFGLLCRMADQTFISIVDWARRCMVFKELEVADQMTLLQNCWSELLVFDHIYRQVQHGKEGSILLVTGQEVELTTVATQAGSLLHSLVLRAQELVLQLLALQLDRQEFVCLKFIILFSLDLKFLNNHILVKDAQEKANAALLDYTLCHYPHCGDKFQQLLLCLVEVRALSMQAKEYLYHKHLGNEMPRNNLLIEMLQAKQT

| Compound | IC50 [µM] | IC50 [1] [µM] |
| --- | --- | --- |
| Cc1cc(C)n(-c2nc(NC(C)(C)C)nc(NC(C)(C)C)n2)n1 [2-N,4-N-ditert-butyl-6-(3,5-dimethylpyrazol-1-yl)-1,3,5-triazine-2,4-diamine] | 8.2 | – |
| Cc1cnc(NC(=O)CN2CCN(c3ccccn3)CC2)s1 [MLS000035284] | 8.52 | – |
| COc1ccc(-c2cc(C(=O)O)c(C)o2)cc1OC [5-(3,4-dimethoxyphenyl)-2-methyl-3-furancarboxylic acid] | – | 10.8 |
| Cc1ccc(-c2nsc3c(N4CCC(C(N)=O)CC4)ncnc23)cc1 [1-(3-p-Tolyl-isothiazolo[4,5-d]pyrimidin-7-yl)-piperidine-4-carboxylic acid amide] | 0.221 | – |
| COc1cc(C2C3=C(N=C(C)C2C#N)c2ccccc2C3=O)cc(OC)c1OC (stereo not drawn) [2-methyl-5-oxidanylidene-4-(3,4,5-trimethoxyphenyl)-1,4-dihydroindeno[1,2-b]pyridine-3-carbonitrile] | > 1.22 | – |
| Clc1ccc(OCCN2CCN(c3ncnc4sccc34)CC2)cc1 [4-[4-[2-(4-chloranylphenoxy)ethyl]piperazin-1-yl]thieno[2,3-d]pyrimidine] | 3.44 | – |
| O=C(Nc1nc(-c2ccccn2)cs1)c1ccc(S(=O)(=O)N2CCCCC2)cc1 [4-(1-piperidinylsulfonyl)-N-[4-(2-pyridinyl)-2-thiazolyl]benzamide] | 9.93 | – |
| CCOc1cc(C(=O)CSc2nnc(CNc3ccc(Cl)cc3)o2)ccc1NC(=O)CC [MLS000032332] | 8.36 | – |
| CCSc1nnc(NC(=O)c2ccccn2)s1 [MLS000056851] | > 3.67 | – |
| Nc1nonc1C(=O)NCCNCc1cc(Br)ccc1OCc1ccc(F)cc1 [4-amino-N-[2-[[5-bromo-2-(4-fluorobenzyl)oxy-benzyl]amino]ethyl]furazan-3-carboxamide;hydrochloride] | 4.46 | – |
| CC(C)(C)c1ccc(-c2noc(CCC(N)=O)n2)cc1 [3-[3-(4-tert-butylphenyl)-1,2,4-oxadiazol-5-yl]propanamide] | 0.069 | – |
| CN(C)C(=O)CCc1nc(-c2ccc(C(C)(C)C)cc2)no1 [3-[3-(4-tert-butylphenyl)-1,2,4-oxadiazol-5-yl]-N,N-dimethyl-propanamide] | 0.993 | – |
| Cc1ccccc1S(=O)(=O)Cc1ccc(C(=O)N2CCN(c3cccc(C)c3C)CC2)o1 [1-(2,3-dimethylphenyl)-4-(5-{[(2-methylphenyl)sulfonyl]methyl}-2-furoyl)piperazine] | – | 13.4 |
| Fc1ccc(-c2nnc(NC3=NCCCCC3)o2)cc1 [5-(4-fluorophenyl)-N-(3,4,5,6-tetrahydro-2H-azepin-7-yl)-1,3,4-oxadiazol-2-amine] | 4.83 | – |
| C=CS(=O)(=O)c1ccc(Oc2ccc(S(=O)(=O)C=C)cc2)cc1 [1-ethenylsulfonyl-4-(4-ethenylsulfonylphenoxy)benzene] | 4.19 | – |
| COc1ccc2c(c1)[nH]c1c(N3CCN(Cc4ccc5c(c4)OCO5)CC3)ncnc12 [4-[4-(1,3-benzodioxol-5-ylmethyl)piperazin-1-yl]-7-methoxy-5H-pyrimido[5,4-b]indole] | – | 13.2 |
| Cc1ccc(-c2cn3nc(C)c(C)nc3n2)cc1 [2,3-dimethyl-6-(4-methylphenyl)imidazo[1,2-b][1,2,4]triazine] | – | 20 |
| FC(F)(F)c1ccc(N2CCN(c3cc(-c4ccccc4)nc4ncnn34)CC2)nc1 [5-Phenyl-7-[4-(5-trifluoromethyl-pyridin-2-yl)-piperazin-1-yl]-[1,2,4]triazolo[1,5-a]pyrimidine] | – | 21.2 |
| COc1cccc2c1C(=O)c1c(O)c3c(c(O)c1C2=O)C[C@@](O)(C(=O)CO)C[C@@H]3O[C@H]1C[C@H](N)[C@H](O)[C@H](C)O1 [MLS000028393] | 0.964 | – |
| CN1CCN(C(=O)COc2ccc(-c3nc4ccccc4s3)cc2)CC1 [2-[4-(1,3-benzothiazol-2-yl)phenoxy]-1-(4-methyl-1-piperazinyl)ethanone] | 7.32 | – |

| Compound | IC50 [µM] | IC50 [1] [µM] |
| --- | --- | --- |
| Cc1ccccc1NC(=O)N1CCCC(c2nc(-c3ccc(C(C)C)cc3)no2)C1 (stereo not drawn) [3-[3-(4-Isopropyl-phenyl)-[1,2,4]oxadiazol-5-yl]-piperidine-1-carboxylic acid o-tolylamide] | 7.13 | – |
| CC(=O)c1ccc(N2CCN(c3ccc(C(F)(F)F)cn3)CC2)cc1 [1-[4-[4-[5-(trifluoromethyl)-2-pyridinyl]-1-piperazinyl]phenyl]ethanone] | > 33 | – |
| c1ccc(-c2nc(NCc3ccco3)c3ccccc3n2)nc1 [2-furfuryl-[2-(2-pyridyl)quinazolin-4-yl]amine] | 6.79 | – |
| Cc1ccc2[nH]c3c(N4CCN(Cc5ccc6c(c5)OCO6)CC4)ncnc3c2c1 | 7.31 | – |
| CCCCCOC(=O)c1[nH]c2c(c1C)C(=O)CC(c1ccco1)C2 (stereo not drawn) [pentyl 6-(furan-2-yl)-3-methyl-4-oxidanylidene-1,5,6,7-tetrahydroindole-2-carboxylate] | > 1.22 | – |
| O=S1(=O)C=C(Sc2nnc(-c3ccccc3)o2)c2ccccc21 | 3.9 | – |
| O=C1C(=CNc2ccc3c(c2)OCO3)CCc2ccccc21 [(2E)-2-[(1,3-benzodioxol-5-ylamino)methylene]tetralin-1-one] | – | 12.3 |
| Cc1ccc(-c2nc(-c3ccccn3)no2)cc1Cl [5-(3-chloranyl-4-methyl-phenyl)-3-pyridin-2-yl-1,2,4-oxadiazole] | > 1.22 | – |
| Clc1ccc(-c2nc(-c3ccccn3)no2)cc1Cl [5-(3,4-dichlorophenyl)-3-(2-pyridinyl)-1,2,4-oxadiazole] | 5.62 | – |
| CCOC(=O)c1[n-]c2ccccc2c1[N+]#N [(Z)-(3-diazonio-2-indolylidene)-ethoxymethanolate] | 11.3 | – |
| c1ccc(-c2noc(-c3ccc4c(c3)OCO4)n2)nc1 [2-[5-(1,3-benzodioxol-5-yl)-1,2,4-oxadiazol-3-yl]pyridine] | 1.36 | – |
| O=c1cc(N2CCN(c3ccccc3)CC2)[nH]c(=O)n1C1CCCCC1 [MLS000094382] | 2.99 | – |
| Cc1nnc(Sc2nc(Sc3nnc(C)s3)nc(N3CCN(C)CC3)n2)s1 [2-(4-Methyl-piperazin-1-yl)-4,6-bis-(5-methyl-[1,3,4]thiadiazol-2-ylsulfanyl)-[1,3,5]triazine] | 2.64 | – |
| Cc1ccc(NC(=O)Cc2nn(C)c(=O)c3ccccc23)cc1F [MLS000047015] | – | 11.4 |
| COc1ccc(CC(=O)Nc2ccc(-c3nnc(-c4ccccc4)o3)cc2)cc1 [2-(4-methoxyphenyl)-N-[4-(5-phenyl-1,3,4-oxadiazol-2-yl)phenyl]acetamide] | – | 18.3 |
| Cc1nn(-c2ccccc2)c(C)c1C(=O)OCC(=O)c1c(N)n(CC(C)C)c(=O)n(C)c1=O [3,5-dimethyl-1-phenyl-4-pyrazolecarboxylic acid [2-[4-amino-1-methyl-3-(2-methylpropyl)-2,6-dioxo-5-pyrimidinyl]-2-oxoethyl] ester] | – | 30.3 |
| CCn1c2ccccc2c2cc(NC(=O)CSc3nnnn3-c3ccccc3)ccc21 [MLS000051054] | 6.92 | – |
| COc1cc(CN2CCN(c3cc(C)ccc3C)CC2)ccc1O [4-[[4-(2,5-dimethylphenyl)-1-piperazinyl]methyl]-2-methoxyphenol] | 4.07 | – |
| Nc1cccc(-c2nc3ccc(N)cc3s2)c1 [2-(3-Amino-phenyl)-benzothiazol-6-ylamine] | > 3.67 | – |
| Nc1nsc2ccccc12 [1,2-benzothiazol-3-amine] | 6.84 | – |

| Compound | IC50 [µM] | IC50 [1] [µM] |
| --- | --- | --- |
| Cc1cc(N2CCN(c3nc4ccccc4s3)CC2)n2ncnc2n1 [2-[4-(5-methyl-[1,2,4]triazolo[1,5-a]pyrimidin-7-yl)-1-piperazinyl]-1,3-benzothiazole] | – | 22.9 |
| c1csc(CNc2ncnc3sccc23)c1 [2-thenyl(thieno[2,3-d]pyrimidin-4-yl)amine] | 3.49 | – |
| CCOC(=O)N1CCC(NC(=O)C2CCCN(Cc3nc(-c4cccc(Cl)c4)oc3C)C2)CC1 (stereo not drawn) [4-[[1-[[2-(3-chlorophenyl)-5-methyl-oxazol-4-yl]methyl]nipecotoyl]amino]piperidine-1-carboxylic acid ethyl ester] | – | 11.3 |
| O=C(NCc1ccco1)c1ccc2nc3sc4c(c3c(=O)n2c1)CCCC4 [MLS000091875] | > 3.67 | – |
| CC(C)(C)c1ccc(-c2cc(N)[nH]n2)cc1 [SMR000095263] | 5.25 | – |
| CCC(NC(=O)Nc1nnc(C(F)(F)F)s1)(C(F)(F)F)C(F)(F)F | > 11 | – |
| O=S1(=O)Nc2c(ccc3cccnc23)-c2ccccc21 [5H-quinolino[8,7-c][1,2]benzothiazine 6,6-dioxide] | 5.46 | – |
| COc1ccc(-c2noc(CCCC(=O)NCCc3ccccc3)n2)cc1OC [4-[3-(3,4-dimethoxyphenyl)-1,2,4-oxadiazol-5-yl]-N-(2-phenylethyl)butanamide] | 4.15 | – |
| CC(C)Cn1c(N)c(C(=O)CSc2ccc3c(c2)OCCO3)c(=O)n(C)c1=O [6-amino-5-[2-(2,3-dihydro-1,4-benzodioxin-6-ylsulfanyl)acetyl]-3-methyl-1-(2-methylpropyl)pyrimidine-2,4-dione] | – | 13.4 |
| Oc1c(CN2CCCCC2)cc(Br)c2cccnc12 [5-bromanyl-7-(piperidin-1-ylmethyl)quinolin-8-ol] | > 3.67 | – |
| CCN(C1CCCCC1)S(=O)(=O)c1ccc(S(=O)(=O)NCc2ccncc2)cc1 [4-N-cyclohexyl-4-N-ethyl-1-N-(pyridin-4-ylmethyl)benzene-1,4-disulfonamide] | – | 19.5 |
| CN(C)c1ccc(N=CCC(=O)c2ccccc2)cc1 [(E)-3-[4-(dimethylamino)anilino]-1-phenyl-2-propen-1-one] | > 11 | – |
| Cc1nnc(SC(=O)N2c3ccccc3Sc3ccccc32)s1 [10-phenothiazinecarbothioic acid S-(5-methyl-1,3,4-thiadiazol-2-yl) ester] | 5.38 | – |
| CCN(CC)c1ccc2cc(NC(=O)CCC(=O)O)c(=O)oc2c1 [4-[[7-(diethylamino)-2-keto-chromen-3-yl]amino]-4-keto-butyric acid] | 5.11 | – |
| O=S(=O)(Nc1cccc2ncccc12)c1cccs1 [MLS000057468] | 5.27 | – |
| Clc1ccc(-c2nnc(NC3=NCCCCC3)o2)cc1 | > 3.67 | – |
| Cc1ccnc(NC(=O)CCCOc2cc(=O)n(C)c3ccccc23)c1 [4-(1-methyl-2-oxidanylidene-quinolin-4-yl)oxy-N-(4-methylpyridin-2-yl)butanamide] | 6.17 | – |
| Cc1cc(C=c2sc3nc4ccccc4n3c2=O)c(C)n1-c1ccccn1 [2-[(2,5-dimethyl-1-pyridin-2-yl-pyrrol-3-yl)methylidene]-[1,3]thiazolo[3,2-a]benzimidazol-1-one] | > 0.00503 | – |
